Data from patent US4308380A, “2-Lower alkyl-2 or 3-cephem-4-carboxylic acid derivatives” (Fujisawa Pharmaceutical Co., Ltd., priority 1973, dated 1981).
≈ marks a conversion by molar mass, not a printed value. Structures can show the parent of a compound that is named as a salt. Where two headings read alike, the source gives them in different places.

Assays:
Assay type in all cases: cell-based
[1] = system: Staphylococcus aureus 209 P JC-1; test: in vitro antimicrobial activity, two-fold agar-plate dilution method, S. aureus 209 P JC-1
Protocol: (§1) In vitro antimicrobial activity was determined by the two-fold agar-plate dilution method as described below.
(§2) One loopful of an overnight culture of each test strain in Trypticase-soy broth (10^8 viable cells per ml) was streaked on heart infusion agar (HI-agar) containing graded concentration of antibiotics, and the minimum inhibitory concentration (MIC) was expressed in terms of meg/ml after incubation at 37° C. for 20 hours.
(§3) The data in Table 1 below present a comparison between the 2-(C1 -C6 alkyl)-cephem compounds of the present invention and known cephem compounds structurally analogous to the present compounds, differing only by alkyl substitution in the 3-position. The in vitro tests of antimicrobial activity of the compared compounds were determined by the two-fold agar plate dilution method described as follows:
as §2, with “(HI sugar)” for “(HI-agar)”, “mcg/ml” for “meg/ml”

[2] = system: Staphylococcus aureus 206; test: in vitro antimicrobial activity, two-fold agar plate dilution method, S. aureus 206; details: Table 1, S. aureus 206, 37° C., 20 hours, read-out: minimum inhibitory concentration (MIC)
Protocol: (§4) The in vitro tests of antimicrobial activity of the compared compounds were determined by the two-fold agar plate dilution method described as follows: […]

[3] = system: Staphylococcus aureus 213; test: in vitro antimicrobial activity, two-fold agar plate dilution method, S. aureus 213; details: Table 1, S. aureus 213, 37° C., 20 hours, read-out: minimum inhibitory concentration (MIC)
Protocol: as §4

[4] = system: Staphylococcus aureus 226; test: in vitro antimicrobial activity, two-fold agar plate dilution method, S. aureus 226; details: Table 1, S. aureus 226, 37° C., 20 hours, read-out: minimum inhibitory concentration (MIC)
Protocol: as §4

[5] = system: Staphylococcus aureus 277; test: in vitro antimicrobial activity, two-fold agar plate dilution method, S. aureus 277; details: Table 1, S. aureus 277, 37° C., 20 hours, read-out: minimum inhibitory concentration (MIC)
Protocol: as §4

[6] = system: Staphylococcus aureus 278; test: in vitro antimicrobial activity, two-fold agar plate dilution method, S. aureus 278; details: Table 1, S. aureus 278, 37° C., 20 hours, read-out: minimum inhibitory concentration (MIC)
Protocol: as §4

[7] = system: Bacillus subtilis ATCC-6633; test: in vitro antimicrobial activity, two-fold agar-plate dilution method, B. subtilis ATCC-6633
Protocol: as §1, §2, §3
as §2, with “(HI sugar)” for “(HI-agar)”, “mcg/ml” for “meg/ml”

[8] = 209PJC1, Table 1, S. aureus 209 P JC-1, 37° C., 20 hours, read-out: minimum inhibitory concentration (MIC)
[9] = ATCC6633, Table 1, B. subtilis ATCC-6633, 37° C., 20 hours, read-out: minimum inhibitory concentration (MIC)
[10] = S. aureus 209-P JC-1, 37° C., 20 hours, HI-agar, read-out: MIC
[11] = ATCC6633, B. subtilis ATCC-6633, 37° C., 20 hours, HI-agar, read-out: MIC

Row | SMILES | MIC [1, 8] [µg/mL] | MIC [2] [µg/mL] | MIC [3] [µg/mL] | MIC [4] [µg/mL] | MIC [5] [µg/mL] | MIC [6] [µg/mL] | MIC [7, 9] [µg/mL] | MIC [1, 10] [µg/mL] | MIC [7, 11] [µg/mL] | MIC ([1]; 209PJC1, 20 h, read-out: minimum inhibitory concentration (MIC)) [µg/mL] | MIC ([7]; ATCC6633, 20 h, read-out: minimum inhibitory concentration (MIC)) [µg/mL]
1 | C=CCSCC(=O)NC1C(=O)N2C(C(=O)O)=C(C)CS[C@H]12 (some centres unmarked) [cited compound (14), 3-Methyl-7-[2-(allylthio)acetamido]-3-cephem-4-carboxylic acid, reference compound] | 6.25 (≈ 19 µM) | 6.25 (≈ 19 µM) | 12.5 (≈ 38.1 µM) | 6.25 (≈ 19 µM) | 6.25 (≈ 19 µM) | 6.25 (≈ 19 µM) | 3.13 (≈ 9.53 µM) |  |  |  | 
2 | CC1=C(C(=O)O)N2C(=O)C(NC(=O)Cc3ccccc3)[C@H]2SC1 (some centres unmarked) [cited compound (8), 3-Methyl-7-(2-phenylacetamido)-3-cephem-4-carboxylic acid, reference compound] |  | 6.25 (≈ 18.8 µM) | 6.25 (≈ 18.8 µM) | 3.13 (≈ 9.42 µM) | 1.56 (≈ 4.69 µM) | 3.13 (≈ 9.42 µM) |  |  |  | 1.56 (≈ 4.69 µM) | 0.78 (≈ 2.35 µM)
3 | CC1C=C(C(=O)O)N2C(=O)C(NC(=O)C(C(=O)Oc3ccc4c(c3)CCC4)c3ccccc3)[C@H]2S1 (some centres unmarked) [Applicants' compound (3), 2-Methyl-7-[2-(5-indanyloxy)carbonyl-2-phenylacetamido]-3-cephem-4-carboxylic acid] | 1.56 (≈ 3.17 µM) | 0.39 (≈ 0.792 µM) | 0.39 (≈ 0.792 µM) | 0.2 (≈ 0.406 µM) | 0.78 (≈ 1.58 µM) | 0.39 (≈ 0.792 µM) | 6.25 (≈ 12.7 µM) | 1.56 (≈ 3.17 µM) | 6.25 (≈ 12.7 µM) |  | 
4 | CC1=C(C(=O)O)N2C(=O)C(NC(=O)C(O)c3cccs3)C2SC1 (centres unmarked) [cited compound (2), 3-Methyl-7-[2-hydroxy-2-(2-thienyl)acetamido]-3-cephem-4-carboxylic acid (sodium salt), reference compound] | 6.25 | 6.25 | 25 | 12.5 | 12.5 | 12.5 | 1.56 |  |  |  | 
5 | CC1=C(C(=O)O)N2C(=O)C(NC(=O)Cc3cccs3)[C@H]2SC1 (some centres unmarked) [cited compound (5), 3-Methyl-7-[2-(2-thienyl)acetamido]-3-cephem-4-carboxylic acid, reference compound] | 3.13 (≈ 9.25 µM) | 3.13 (≈ 9.25 µM) | 12.5 (≈ 36.9 µM) | 12.5 (≈ 36.9 µM) | 12.5 (≈ 36.9 µM) | 6.25 (≈ 18.5 µM) | 0.78 (≈ 2.3 µM) |  |  |  | 
6 | CC1=C(C(=O)O)N2C(=O)C(NC(=O)Cc3cccnc3)[C@H]2SC1 (some centres unmarked) [cited compound (15), 3-Methyl-7-[2-(3-pyridyl)acetamido]-3-cephem-4-carboxylic acid, reference compound] | 6.25 (≈ 18.7 µM) | 12.5 (≈ 37.5 µM) | 25 (≈ 75 µM) | 12.5 (≈ 37.5 µM) | 6.25 (≈ 18.7 µM) | 12.5 (≈ 37.5 µM) | 1.56 (≈ 4.68 µM) |  |  |  | 

Further lines, with some results ahead:

Row | MIC [1, 8] [µg/mL] | MIC [2] [µg/mL] | MIC [3] [µg/mL] | MIC [4] [µg/mL] | MIC [5] [µg/mL] | MIC [6] [µg/mL] | MIC [7, 9] [µg/mL] | MIC [1, 10] [µg/mL] | MIC [7, 11] [µg/mL] | SMILES | MIC ([1]; 209PJC1, 20 h, read-out: minimum inhibitory concentration (MIC)) [µg/mL] | MIC ([7]; ATCC6633, 20 h, read-out: minimum inhibitory concentration (MIC)) [µg/mL]
7 | 3.13 (≈ 7.95 µM) | 6.25 (≈ 15.9 µM) | 25 (≈ 63.5 µM) | 6.25 (≈ 15.9 µM) | 25 (≈ 63.5 µM) | 12.5 (≈ 31.8 µM) | 6.25 (≈ 15.9 µM) | 3.13 (≈ 7.95 µM) | 6.25 (≈ 15.9 µM) | CSc1ccc(C(N)C(=O)NC2C(=O)N3C(C(=O)O)=CC(C)S[C@H]23)cc1 (some centres unmarked) [Applicants' compound (16), 2-Methyl-7-[2-amino-2-(4-methylthiophenyl)acetamido]-3-cephem-4-carboxylicacid] |  | 
8 | 0.78 (≈ 2.35 µM) | 1.56 (≈ 4.69 µM) | 1.56 (≈ 4.69 µM) | 1.56 (≈ 4.69 µM) | 3.13 (≈ 9.42 µM) | 1.56 (≈ 4.69 µM) | 0.2 (≈ 0.602 µM) | 0.78 (≈ 2.35 µM) | 0.2 (≈ 0.602 µM) | CC1C=C(C(=O)O)N2C(=O)C(NC(=O)Cc3ccccc3)[C@H]2S1 (some centres unmarked) [Applicants' compound (8), 2-Methyl-7-(2-phenylacetamido)-3-cephem-4-carboxylic acid] |  | 
9 | 3.13 (≈ 9.2 µM) | 3.13 (≈ 9.2 µM) | 6.25 (≈ 18.4 µM) | 3.13 (≈ 9.2 µM) | 6.25 (≈ 18.4 µM) | 6.25 (≈ 18.4 µM) | 1.56 (≈ 4.58 µM) | 3.13 (≈ 9.2 µM) | 1.56 (≈ 4.58 µM) | CC1C=C(C(=O)O)N2C(=O)C(NC(=O)Cc3cnsn3)[C@H]2S1 (some centres unmarked) [Applicants' compound (12), 2-Methyl-7-[2-(1,2,5-thiadiazol-3-yl)acetamido]-3-cephem-4-carboxylic acid] |  | 
